Reference: US10883142B2, “Risk assessment for phenytoin-induced adverse drug reactions” (priority 2011, dated 2021)

Key:
[1] = Phenytoin plasma concentration during ADR onset, HPLC analysis of patients' plasma; type: in vivo, human
Procedure: In this study, the phenytoin concentrations during ADR onset were determined from patients' plasma by HPLC analysis and estimated by non-linear pharmacokinetics formula: […]
Therapeutic levels of phenytoin are usually between 10-20 μg/ml. […] We also compared the phenytoin plasma levels of patients who carried CYP2Cs variants. […] Defective metabolism of phenytoin may increase the risk of drug accumulation, and leads to its risk to induce severe hypersensitivity reactions, such as SJS/TEN and DRESS.

[2] = normal therapeutic range, plasma; cited from earlier work
[3] = patients who received phenytoin; cited from earlier work

Question: Which results are given for `O=C1NC(=O)C(c2ccccc2)(c2ccccc2)N1` [phenytoin]?
Answer: phenytoin concentrations ([1]; 5 phenytoin-ADRs patients who carry CYP2C9*3 variant (of 23 analysed)): higher than 20 μg/ml; phenytoin plasma levels ([1]; patients with phenytoin-SJS/TEN, P=0.006 vs. tolerant control): 40 to 50 µg/mL; phenytoin plasma levels ([1]; tolerant control patients, after taking drug): 5 to 15 µg/mL; therapeutic levels of phenytoin [2]: 10 to 20 µg/mL; patients who developed hypersensitivity reactions [3]: more than 19%
